# Results: patent US6737383B1, “Herbicidal oxadiazolidines” (priority 1999, dated 2004)
# What was measured:
# giant foxtail = assay: Test B pre/postemergence giant foxtail; type: in vivo, Setaria faberii
# Summary of the method: (§1)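 Test chemicals in a non-phytotoxic solvent mixture with surfactant were sprayed preemergence onto planted seeds and postemergence onto plants 2 to 18 cm tall (1- to 4-leaf stage). After twelve to sixteen days in a greenhouse, injury was visually rated against untreated controls from 0 (no effect) to 10 (complete control).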
# velvetleaf = assay: Test B pre/postemergence velvetleaf; type: in vivo, Abutilon theophrasti
# Summary of the method: as §1
# rice = assay: Test B flood test rice; type: in vivo, Oryza sativa
# Summary of the method: (§2)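 Plants were grown to the 2-leaf stage before treatment with test chemical, then held in a greenhouse for twelve to sixteen days. Injury was visually rated against untreated controls on a 0–10 scale, where 0 is no effect and 10 is complete control.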
# soybean = assay: Test B pre/postemergence soybean; type: in vivo, Glycine max
# Summary of the method: as §1
# wild oat = assay: Test B pre/postemergence wild oat; type: in vivo, Avena fatua
# Summary of the method: as §1
# bamyardgrass = assay: Test B flood test barnyardgrass; type: in vivo, Echinochloa crus-galli
# Summary of the method: as §2
# bedstraw = assay: Test B pre/postemergence bedstraw; type: in vivo, Galium aparine; conditions: Postemergence, Rate 62 g/ha; scale 0 to 10, 0 is no effect, 10 is complete control
# Summary of the method: as §1
# sugar beet = assay: Test B pre/postemergence sugar beet; type: in vivo, Beta vulgaris
# Summary of the method: as §1
# morningglory = assay: Test B pre/postemergence morningglory; type: in vivo, Ipomoea hederacea
# Summary of the method: as §1
# duck salad = assay: Test B flood test duck salad; type: in vivo, Heteranthera limosa
# Summary of the method: as §2
# cocklebur = assay: Test B pre/postemergence cocklebur; type: in vivo, Xanthium strumarium
# Summary of the method: as §1
# corn = assay: Test B pre/postemergence corn; type: in vivo, Zea mays
# Summary of the method: as §1
# crabgrass = assay: Test B pre/postemergence crabgrass; type: in vivo, Digitaria sanguinalis
# Summary of the method: as §1
# smallflower flatsedge = assay: Test B flood test smallflower flatsedge; type: in vivo, Cyperus difformis
# Summary of the method: as §2
# pigweed = assay: Test B pre/postemergence pigweed; type: in vivo, Amaranthus retroflexus
# Summary of the method: as §1
# wheat = assay: Test B pre/postemergence wheat; type: in vivo, Triticum aestivum
# Summary of the method: as §1
# rape = assay: Test B pre/postemergence rape; type: in vivo, Brassica napus
# Summary of the method: as §1
# purple nutsedge = assay: Test B pre/postemergence purple nutsedge; type: in vivo, Cyperus rotundus
# Summary of the method: as §1
# surinam grass = assay: Test B pre/postemergence surinam grass; type: in vivo, Brachiaria decumbens
# Summary of the method: as §1
# blackgrass = assay: Test B pre/postemergence blackgrass; type: in vivo, Alopecurus myosuroides
# Summary of the method: as §1
# [1] = Postemergence, Rate 62 g/ha, scale 0 to 10, 0 is no effect, 10 is complete control
# [2] = Postemergence, Rate 125 g/ha, scale of 0 to 10 where 0 is no effect and 10 is complete control
# [3] = Postemergence, Rate 250 g/ha, scale of 0 to 10, 0 is no effect, 10 is complete control
# [4] = Postemergence, Rate 500 g/ha, scale of 0 to 10 where 0 is no effect and 10 is complete control
# [5] = Preemergence, Rate 62 g/ha, scale of 0 to 10 where 0 is no effect and 10 is complete control
# [6] = Preemergence, Rate 125 g/ha, scale of 0 to 10 where 0 is no effect and 10 is complete control
# [7] = Preemergence, Rate 250 g/ha, scale 0 to 10 (0 no effect, 10 complete control)
# [8] = Preemergence, Rate 500 g/ha, scale of 0 to 10 where 0 is no effect and 10 is complete control
# [9] = Rate 62 g/ha, flood test species, Pre-emergence, visual evaluation after twelve to sixteen days
# [10] = Rate 125 g/ha, under heading Pre-emergence, flood test species, visual evaluation after twelve to sixteen days
# [11] = Rate 250 g/ha, Pre-emergence (flood test species), scale 0 to 10, 0 is no effect, 10 is complete control
# [12] = Rate 500 g/ha, Pre-emergence section of Table B, 0 to 10 scale (0 no effect, 10 complete control)
structure (smiles),measurement,setting,value
CC(C)N(C(=O)n1oc(=O)n(CCCC#N)c1=O)c1ccc(F)cc1 [Compound 647],"Plant response rating, Giant foxtail",giant foxtail; [1],8
same,Giant foxtail plant response rating,giant foxtail; [2],9
same,Giant foxtail plant response rating,giant foxtail; [3],9
same,"Plant response rating, Giant foxtail",giant foxtail; [4],9
same,Giant foxtail plant response rating,giant foxtail; [5],9
same,Giant foxtail plant response rating,giant foxtail; [6],10
same,"Plant response rating, Giant foxtail",giant foxtail; [7],10
same,"Plant response rating, Giant foxtail",giant foxtail; [8],10
same,"Plant response rating, Velvetleaf",velvetleaf; [1],5
same,Velvetleaf plant response rating,velvetleaf; [2],5
same,Velvetleaf plant response rating,velvetleaf; [5],6
same,Velvetleaf plant response rating,velvetleaf; [6],8
same,"Plant response rating, Velvetleaf",velvetleaf; [7],8
same,"Plant response rating, Velvetleaf",velvetleaf; [8],9
same,"Plant response rating, Rice (0 to 10 scale, 0 is no effect, 10 is complete control)",rice; [9],0
same,"Rice plant response rating (0 to 10 scale, 0 is no effect, 10 is complete control)",rice; [10],0
same,Rice plant response rating,rice; [11],0
same,Rice plant response rating,rice; [12],0
same,"Plant response rating, Soybean",soybean; [1],2
same,Soybean plant response rating,soybean; [2],3
same,Soybean plant response rating,soybean; [5],0
same,Soybean plant response rating,soybean; [6],0
same,"Plant response rating, Soybean",soybean; [7],1
same,"Plant response rating, Soybean",soybean; [8],1
same,"Plant response rating, Wild oats",wild oat; [1],0
same,Wild oats plant response rating,wild oat; [2],0
same,Wild oats plant response rating,wild oat; [5],5
same,Wild oats plant response rating,wild oat; [6],8
same,"Plant response rating, Wild oats",wild oat; [7],9
same,"Plant response rating, Wild oats",wild oat; [8],10
same,"Plant response rating, Barnyardgrass (0 to 10 scale, 0 is no effect, 10 is complete control)",bamyardgrass; [9],0
same,"Barnyardgrass plant response rating (0 to 10 scale, 0 is no effect, 10 is complete control)",bamyardgrass; [10],0
same,Barnyardgrass plant response rating,bamyardgrass; [11],0
same,Barnyardgrass plant response rating,bamyardgrass; [12],0
same,"Plant response rating, Bedstraw",bedstraw,0
same,"Plant response rating, Sugarbeets",sugar beet; [1],1
same,Sugarbeets plant response rating,sugar beet; [2],2
same,Sugarbeets plant response rating,sugar beet; [5],7
same,Sugarbeets plant response rating,sugar beet; [6],8
same,"Plant response rating, Sugarbeets",sugar beet; [7],8
same,"Plant response rating, Sugarbeets",sugar beet; [8],8
same,"Plant response rating, Morningglory",morningglory; [1],0
same,Morningglory plant response rating,morningglory; [2],0
same,Morningglory plant response rating,morningglory; [3],2
same,"Plant response rating, Morningglory",morningglory; [4],6
same,Morningglory plant response rating,morningglory; [5],0
same,Morningglory plant response rating,morningglory; [6],0
same,"Plant response rating, Morningglory",morningglory; [7],7
same,"Plant response rating, Morningglory",morningglory; [8],7
same,"Plant response rating, Ducksalad (0 to 10 scale, 0 is no effect, 10 is complete control)",duck salad; [9],0
same,"Ducksalad plant response rating (0 to 10 scale, 0 is no effect, 10 is complete control)",duck salad; [10],0
same,Ducksalad plant response rating,duck salad; [11],0
same,Ducksalad plant response rating,duck salad; [12],0
same,"Plant response rating, Cocklebur",cocklebur; [1],0
same,Cocklebur plant response rating,cocklebur; [2],0
same,Cocklebur plant response rating,cocklebur; [3],4
same,"Plant response rating, Cocklebur",cocklebur; [4],4
same,Cocklebur plant response rating,cocklebur; [5],0
same,Cocklebur plant response rating,cocklebur; [6],0
same,"Plant response rating, Cocklebur",cocklebur; [7],1
same,"Plant response rating, Cocklebur",cocklebur; [8],7
same,"Plant response rating, Corn",corn; [1],0
same,Corn plant response rating,corn; [2],2
same,Corn plant response rating,corn; [3],5
same,"Plant response rating, Corn",corn; [4],6
same,Corn plant response rating,corn; [5],0
same,Corn plant response rating,corn; [6],3
same,"Plant response rating, Corn",corn; [7],5
same,"Plant response rating, Corn",corn; [8],10
same,"Plant response rating, Crabgrass",crabgrass; [1],7
same,Crabgrass plant response rating,crabgrass; [2],9
same,Crabgrass plant response rating,crabgrass; [3],9
same,"Plant response rating, Crabgrass",crabgrass; [4],9
same,Crabgrass plant response rating,crabgrass; [5],8
same,Crabgrass plant response rating,crabgrass; [6],8
same,"Plant response rating, Crabgrass",crabgrass; [7],9
same,"Plant response rating, Crabgrass",crabgrass; [8],9
same,"Plant response rating, S. Flatsedge (0 to 10 scale, 0 is no effect, 10 is complete control)",smallflower flatsedge; [9],0
same,"S. Flatsedge plant response rating (0 to 10 scale, 0 is no effect, 10 is complete control)",smallflower flatsedge; [10],0
same,S. Flatsedge plant response rating,smallflower flatsedge; [11],0
same,S. Flatsedge plant response rating,smallflower flatsedge; [12],0
same,"Plant response rating, Redroot pigweed",pigweed; [1],0
same,Redroot pigweed plant response rating,pigweed; [2],4
same,Redroot pigweed plant response rating,pigweed; [5],10
same,Redroot pigweed plant response rating,pigweed; [6],10
same,"Plant response rating, Redroot pigweed",pigweed; [7],10
same,"Plant response rating, Redroot pigweed",pigweed; [8],10
same,"Plant response rating, Wheat",wheat; [1],0
same,Wheat plant response rating,wheat; [2],3
same,Wheat plant response rating,wheat; [5],1
same,Wheat plant response rating,wheat; [6],6
same,"Plant response rating, Wheat",wheat; [7],8
same,"Plant response rating, Wheat",wheat; [8],8
same,"Plant response rating, Rape",rape; [1],0
same,Rape plant response rating,rape; [2],0
same,"Plant response rating, Rape",rape; [4],7
same,Rape plant response rating,rape; [5],5
same,Rape plant response rating,rape; [6],8
same,"Plant response rating, Rape",rape; [7],10
same,"Plant response rating, Rape",rape; [8],10
same,"Plant response rating, Nutsedge",purple nutsedge; [1],0
same,Nutsedge plant response rating,purple nutsedge; [2],0
same,"Plant response rating, Nutsedge",purple nutsedge; [4],6
same,Nutsedge plant response rating,purple nutsedge; [5],0
same,Nutsedge plant response rating,purple nutsedge; [6],0
same,"Plant response rating, B. signalgrass",surinam grass; [1],4
same,"Plant response rating, B. signalgrass",surinam grass; [2],6
same,B. signalgrass plant response rating,surinam grass; [3],7
same,"Plant response rating, B. signalgrass",surinam grass; [4],8
same,B. signalgrass plant response rating,surinam grass; [5],3
same,B. signalgrass plant response rating,surinam grass; [6],7
same,"Plant response rating, B. signalgrass",surinam grass; [7],9
same,"Plant response rating, B. signalgrass",surinam grass; [8],10
same,"Plant response rating, Blackgrass",blackgrass; [1],6
same,Blackgrass plant response rating,blackgrass; [3],7
same,"Plant response rating, Blackgrass",blackgrass; [4],8
same,Blackgrass plant response rating,blackgrass; [5],7
same,Blackgrass plant response rating,blackgrass; [6],9
same,"Plant response rating, Blackgrass",blackgrass; [7],10
same,"Plant response rating, Blackgrass",blackgrass; [8],10
